# Assay results published in patent US20090076130A1, “COMPOUNDS FOR THE INHIBITION OF HISTONE DEACETYLASE” (NATUREWISE BIOTECH & MEDICALS CORPORATION, priority 2007, published 2009).
# Tests used:
# cyclinD1, cyclinB1, p21 = assay: RT-PCR of cell cycle regulator genes in C6 glioma cells; format: cell-based, rat; conditions: GAPDH internal control
# Method: For the rat C6 glioma cells, the cell cycle related to mRNA expression was examined by RT-PCR. The total RNAs were isolated from the treated C6 cells by using the RNeasy Mini Kit (Qiagen) according to the manufacturer's instructions. The cDNAs were produced from 500 ng of total RNAs using ReverTra-Plus-™ (TOYOBO). The RT product (1 μl) was amplified by PCR with primers to analyze several genes of cell cycle by using GAPDH as an internal control. According to the results of FIG. 3, NBM-HD-1 can modulate the expression of some cell cycle regulators. […] On the contrary, the expression of p21 was increased.
# rat C6 glioma cells = assay: Growth of rat C6 glioma cells (observation and cell counting); format: cell-based; conditions: 2.5, 5 and 10 μg/mL, 48 hours, cell density and cell counting vs control
# Method: The cancer cell line, rat C6 glioma cells, was cultured in Dulbecco's modified Eagle's medium (DMEM; Gibco) supplemented with penicillin G, streptomycin sulphate, 0.5 mM of L-glutamine and 10% fetal bovine serum (FBS; Gibco) at 37° C., 5% CO2 and 95% relative humidity. For all experiments, the cells were seeded at a density of 3×10^5 per well in 6-well plates. After 24 hours, the cells were treated with different concentrations of the compound NBM-HD-1 (i.e., the compound of formula III depicted herein). After 48 hours, the cells were observed and counted. According to the results shown in FIG. 1, NBM-HD-1 can arrest the growth of rat C6 glioma cells. After the C6 glioma cells were incubated with 2.5 μg/mL (see FIG. 1(A)-b), 5 μg/mL (see FIG. 1(A)-c) and 10 μg/mL (see FIG. 1(A)-d) of NBM-HD-1 for 48 hours, the density of the cells reduced dramatically in comparison with that of control (see FIG. 1(A)-a).
# [1] = system: human breast MCF-7 cancer cells; assay: Growth and morphology of breast cancer MCF-7 cells; format: cell-based
# Method: The breast cancer MCF-7 cells, were cultured in Dulbecco's modified Eagle's medium (DMEM; Gibco) supplemented with penicillin G, streptomycin sulphate, 0.5 mM of L-glutamine and 10% fetal bovine serum (FBS; Gibco) at 37° C., 5% CO2 and 95% relative humidity. The cells were seeded at a density of 3×10^5 per well of 6-well plates. After 24 hours, the cells were treated with different concentrations of compound NBM-HD-1 and 4 mM sodium butyrate being used as the positive control. The cells were observed after 48 hours and counted after 96 hours. […] In FIG. 8(A), after the cells were incubated with 2.5 μg/mL (FIG. 8(A)-b), 5 μg/mL (FIG. 8(A)-c) and 10 μg/mL (FIG. 8(A)-d) of NBM-HD-1 for 48 hours, the density of MCF-7 cells reduced dramatically in comparison with that of the control group (FIG. 8(A)-a). The morphology of the MCF-7 cells in the experimental group changed in comparison with that in the control group. […] The results of the cell counting (FIG. 8(B)) indicate that, similar to sodium butyrate, NBM-HD-1 inhibits cell growth.
# MCF-7 cancer cells were seeded at a density of 3×10^5 per well in 6-well plates. After 24 hours, the cells were treated with different concentrations of compound NBM-HD-2 and 4 mM sodium butyrate being used as the positive control. The cells were observed and counted after 72 hours. […] In FIG. 13(A), after the cells were incubated with 2.5 μg/mL (FIG. 13(A)-c), 5 μg/mL (FIG. 13(A)-d), 7.5 μg/mL (FIG. 13(A)-e) and 10 μg/mL (FIG. 13(A)-f) of NBM-HD-2 for 72 hours, the density of MCF-7 cells reduced dramatically in comparison with that of the control group (FIG. 13(A)-a). The morphology of the MCF-7 cells in the experimental group changed in comparison with that in the control group.
# MCF-7 cancer cells were seeded at a density of 3×10^5 per well of 6-well plates. After 24 hours, the cells were treated with different concentrations of compound NBM-HD-3 and 4 mM sodium butyrate, which was being used as the positive control. The cells were observed and counted after 72 hours. […] In FIG. 14(A), after the cells were incubated with 2.5 μg/mL (FIG. 14(A)-c), 5 μg/mL (FIG. 14(A)-d), 7.5 μg/mL (FIG. 14(A)-e) and 10 μg/mL (FIG. 14(A)-f) of NBM-HD-3 for 72 hours, the density of MCF-7 cells reduced dramatically in comparison with that of the control group (FIG. 14(A)-a). The morphology of the MCF-7 cells in the experimental group changed in comparison with that in the control group. […] The results of the cell counting (FIG. 14(B)) indicate that, similar to sodium butyrate, NBM-HD-3 inhibits cell growth.
# acetylated histone H4 = assay: Western blotting of hyperacetylated histone H4 in C6 glioma cells; format: cell-based, rat
# Method: Accumulation of hyperacetylated histone H4 was analyzed in the cell lysates by using Western Blotting and the antibody directed against acetylated histone H4 (Upstate). The C6 glioma cells were seeded at a density of 1×10^6 per 10 cm culture dish. After 24 hours, the cells were treated with 10 μg/mL of NBM-HD-1 or 4 mM sodium butyrate for several hours. The whole-cell lysates were prepared by using denaturing SDS sample buffer and then separated on 15% SDS-polyacrylamide gels. […] The amount of acetylated histones was hardly detectable in untreated C6 glioma cells. The amount of acetylated histone H4 of the cells treated with 4 mM sodium butyrate for 2 hours increased. Sodium butyrate was then removed from the culture medium. After 6 hours, the amount of acetylated histone H4 decreased. The accumulation of acetylated histone H4 increased in the cells treated with NBM-HD-1 for 2 hours. […] The highest histone acetylation appeared at 6 hours after the compound had been removed. […] Because NBM-HD-1 is more hydrophobic than sodium butyrate, NBM-HD-1 can be retained in the cells longer than sodium butyrate and continuously induce the acetylation of histone H4.
compound,measurement,setting,value
COc1cc2c(c(OC)c1CCC(C)(C)O)C(=O)C[C@@H](c1ccc(OC)c(OC)c1C/C=C(\C)CCCC(C)(C)O)O2 [NBM-HD-1],expression of cyclinD1 and cyclinB1,"cyclinD1, cyclinB1, p21",decrease the expression of cyclinD1 and cyclinB1 in a dose-dependent manner
same,expression of p21,"cyclinD1, cyclinB1, p21",increased
same,growth of C6 glioma cells,rat C6 glioma cells,can inhibit the growth of C6 glioma cells in a dose-dependent manner
same,morphology of MCF-7 cancer cells,"[1]; 2.5, 5, 10 μg/mL, 48 hours",change their morphology
same,growth of MCF-7 cancer cells,"[1]; NBM-HD-1 2.5, 5, 10 μg/mL or 4 mM sodium butyrate, observed after 48 hours, counted after 96 hours",can inhibit the growth of MCF-7 cancer cells in a dose-dependent manner
same,accumulation of hyperacetylated histone H4,"acetylated histone H4; 10 μg/mL NBM-HD-1 or 4 mM sodium butyrate, 2 hours",can increase the accumulation of hyperacetylated histone H4
same,time of highest histone acetylation after removal of the compound,"acetylated histone H4; 10 μg/mL, 2 hours treatment",6 h
same,amount of acetylated histone H4 after removal of the compound,"acetylated histone H4; after 2 hours treatment and removal from the culture medium, up to 6 hours",increased over time
